# Test system: Vero cells
# Assay: Luciferase assay of total cellular ATP
# Type: cell-based, African green monkey
# Settings: 5 μM ouabain, 0.4, 0.8 and 1.1% BREATHOX POWDER, 1 h
# Description: Then to see the available ATP a luciferase assay was performed. Changes of the total concentration of ATP in Vero cells exposed to increasing concentrations of NaCl for 1 or 72 h was determined by plate microfluorimetry recordings with the FlexStation III microplate reader and the ATP Assay Kit (SIGMA-ALDRICH) following the manufacturer's instructions. The kit provides extremely sensitive results, detecting ATP release of 10-100 mammalian cells/well, based on the firefly luciferase-catalyzed oxidation of D-luciferin in the presence of ATP, which the amount of ATP is quantified by the amount of light (hv) produced. Recordings of the luminescence intensity of 5×10^4 cells in black clear bottom of 96 wells plates were acquired at rest (point 0 h), 1 h, 24 h and 72 h after NaCl challenge (depolarizing agent).
# In order to test whether the reduced level of ATP was caused by the increased activity of Na+/K+ ATPase transporter, Vero cells were treated with 0.4, 0.8 and 1.1% of BREATHOX® POWDER in presence or absence of 5 μM ouabain (Na+/K+ ATPase transporter inhibitor). Changes in total ATP concentration in Vero cells exposed to increasing concentrations of BREATHOX® POWDER with or without 5 μM ouabain for 1 hour was determined by plate microfluorimetry recordings with the FlexStation III microplate reader and the ATP Assay Kit (SIGMA-Aldrich) following the manufacturer's instructions. […]
compound,measurement,value
C[C@@H]1O[C@@H](O[C@H]2C[C@@H](O)[C@]3(CO)[C@H]4[C@H](O)C[C@]5(C)[C@@H](C6=CC(=O)OC6)CC[C@]5(O)[C@@H]4CC[C@]3(O)C2)[C@H](O)[C@H](O)[C@H]1O [ouabain],decrease in ATP level caused by BREATHOX POWDER,significantly reversed
